The assay deals with Human peripheral blood mononuclear cells (PBMC). The assay is described as follows: Mixed human lymphocyte reaction (MLR) assay. The assay is classed as cell-based. The settings on record: for inhibition at 100 µM: read-out: % inhibition of proliferation (100 μM), 100 μM, referred to uninhibited controls (0%); for inhibition at 0.0005 µM: immunosuppressant alone, 0.5 nM, read-out: inhibition of lymphocyte proliferation. As for the experimental part: coculture of lymphocytes of different […] (MLR=mixed lymphocyte reaction): lymphocytes containing different antigens of the HLA-DR type (=allogens) activate each other non-specifically.
100 μl of those PBMC are mixed with 100 μl of irradiated PMBC (1×10^6 cells/ml) in a well of a microtiter plate. The test substances, alone or in combination, are likewise added to the PBMC. The plates are incubated for 5 days at 37° C. in a moist atmosphere which contains 5% CO2. Then 1 μCi of ^3H-thymidine is added to the cells and they are incubated under the abovementioned conditions for a further 8 hours. The cells are then collected on glass fiber filters and the incorporated radioactivity is determined using a beta counter.
Inhibition is given in percent and referred to uninhibited controls (which correspond to 0%).
Inhibition is given in percent and referred to uninhibited controls (which correspond to 0%)

`CCCCn1cnc2c1c(=O)n(CCCCC(C)(C)O)c(=O)n2C` [Compound 8, 1-(5-hydroxy-5-methylhexyl)-3-methyl-7-butylxanthine]: the inhibition at 100 µM stood at 91%.

For the compound `CCOCn1cnc2c1c(=O)n(CCCCC(C)(C)O)c(=O)n2C` [Compound 9, 7-ethoxymethyl-1-(5-hydroxy-5-methylhexyl)-3-methylxanthine], the inhibition at 100 µM came to 61%.

As to `CO[C@H]1C[C@@H]2CC[C@@H](C)[C@@](O)(O2)C(=O)C(=O)N2CCCC[C@H]2C(=O)O[C@H]([C@H](C)C[C@@H]2CC[C@@H](O)[C@H](OC)C2)CC(=O)[C@H](C)/C=C(\C)[C@@H](O)[C@@H](OC)C(=O)[C@H](C)C[C@H](C)/C=C/C=C/C=C/1C` [RPM, rapamycin, reference compound], the inhibition at 0.0005 µM was found to be 35%.

As to `CCCCCCn1c(=O)c2c(ncn2C)n(C)c1=O` [Compound 14, 1-hexyl-3,7-dimethylxanthine], the inhibition at 100 µM was determined as 85%.

Regarding `Cn1c(=O)n(CCCCC(C)(C)O)c(=O)c2c1ncn2CC1CC1` [Compound 12, 7-cyclopropylmethyl-1-(5-hydroxy-5-methylhexyl)-3-methylxanthine], the inhibition at 100 µM turned out to be 85%.

With `C=CC[C@@H]1/C=C(\C)C[C@H](C)C[C@H](OC)[C@H]2O[C@@](O)(C(=O)C(=O)N3CCCC[C@H]3C(=O)O[C@H](/C(C)=C/[C@@H]3CC[C@@H](O)[C@H](OC)C3)[C@H](C)[C@@H](O)CC1=O)[C@H](C)C[C@@H]2OC` [FK 506, Tacrolimus, reference compound], the inhibition at 0.0005 µM amounted to 30%.

In the case of `CCCn1cnc2c1c(=O)n(CCCCC(C)O)c(=O)n2C` (centres unmarked) [Compound 3, 1-(5-hydroxyhexyl)-3-methyl-7-propyl-xanthine], the inhibition at 100 µM came to 83%.

Turning to `CCCCn1cnc2c1c(=O)n(CCCCCC(C)(C)O)c(=O)n2CC` [Compound 11, 7-butyl-3-ethyl-1-(6-hydroxy-6-methylheptyl)-xanthine], the inhibition at 100 µM was determined as 94%.

The values above are taken from US6432968B1 (Aventis Pharma Deutschland GmbH, priority 1994, dated 2002).
